Assay results published in US10966976B2, “Methods for inducing an immune response by inhibition of nonsense mediated decay” (MOONSHOT PHARMA LLC, priority 2015, dated 2021).

What was measured:
[1] = test system: CD3+ immune cells infiltrating tumor tissue; assay: Immunohistochemistry of sectioned tumor tissue, immune cell infiltration; assay type: in vivo, C57BL/6 mice; conditions: FFPE tumor sections; FIG. 4
Description: Immunohistochemistry (IHC): Formalin-fixed paraffin-embedded (FFPE) tissue from tumor samples were sectioned to 4 urn. Antigen retrieval (AR) was conducted at 100° C., in EDTA buffer, at pH 9.0 for 20 min. Primary antibody (diluted with validated concentration), RT 60 min+ secondary antibody (ready-to-use), RT 60 min+Bond Polymer Refine Detection.

[2] = test system: MC38 tumor cells; assay: MC38 subcutaneous syngeneic tumor model, tumor volume by caliper; assay type: in vivo, C57BL/6 mice; set-up: Percent inhibition of tumor volume: concentration or dose not given beside the values; conditions: for Percent inhibition of tumor volume: vs vehicle group, negative values indicate an increase in tumor volume
Description: This Example evaluated the effectiveness of an NMDI alone and in combination with one or more immunotherapy agents for the treatment of tumor-bearing C57BL/6 mice.
Animals: Female 6-8 week old (estimated age at inoculation) C57BL/6 mice were obtained from Shanghai Lingchang Bio-Technology Co. Ltd (LC, Shanghai, China). The animals were housed at 20-26° C. with a 12 hours light and 12 hours darkness cycle.
Cell Culture: MC38 tumor cells were maintained in vitro as a monolayer culture in DMEM medium supplemented with 10% fetal bovine serum at 37° C. in an atmosphere of 5% CO2 in air. The tumor cells were routinely subcultured twice weekly. Cells in an exponential growth phase were harvested and counted for tumor inoculation.
Therapeutic compounds: Anti-PD-1 and anti-CTLA-4 antibodies were obtained from BioXCell as was an anti-CD8 antibody. The nonsense mediated decay inhibitor NMDI14 (4,5-Dimethyl-2-[[2-(1,2,3,4-tetrahydro-6,7-dimethyl-3-oxo-2-quinoxalinyl)acetyl]amino]-3-thiophenecarboxylic acid ethyl ester, Ethyl 2-{[(6,7-dimethyl-3-oxo-1,2,3,4-tetrahydro-2-quinoxalinyl)acetyl]amino}-4,5-dimethyl-3-thiophenecarboxylate) was obtained from ChemBridge Corp. (La Jolla, Calif.).
Tumor Inoculation: Each mouse was inoculated subcutaneously at the right lower flank region with MC38 tumor cells (1×10^6) in 0.1 mL of PBS for tumor development. The treatments were started when the mean tumor size reaches approximately 50 mm^3. The date of tumor cell inoculation was denoted as day 0.
Group assignment: Before grouping and treatment, all animals were weighed and the tumor volumes measured using a caliper. Tumor volume was used as numeric parameter to randomize selected animals into specified groups in order to minimize systematic error. The grouping was performed by using StudyDirector™ software (Studylog Systems, Inc. CA, USA). One optimal randomization design (generated by Matched distribution) showing minimal group to group variation in tumor volume was selected for group allocation.
After tumor cell inoculation, the animals were checked daily for morbidity and mortality as well as any effects of tumor growth and treatments on normal behavior such as mobility, visual estimation of food and water consumption, body weight gain/loss, eye/hair matting and any other abnormal effect. Tumor volumes were measured twice weekly at least in two dimensions using a caliper, and the volume expressed in mm^3 using the formula: V=0.5 a×b^2 where a and b are the long and short diameters of the tumor, respectively.

Question: Which results are given for `CCOC(=O)c1c(NC(=O)CC2Nc3cc(C)c(C)cc3NC2=O)sc(C)c1C` (stereo not drawn) [NMDI14, 4,5-Dimethyl-2-[[2-(1,2,3,4-tetrahydro-6,7-dimethyl-3-oxo-2-quinoxalinyl)acetyl]amino]-3-thiophenecarboxylic acid ethyl ester]?
Answer: CD3+ immune cell infiltration of tumor tissue (IHC, in words) [1]: significant numbers of CD3+ immune cells infiltrating tumor tissue; Percent inhibition of tumor volume ([2]; Day 9): −0.11%; Mean tumor volume ([2]; Day 9 after inoculation, MC38 tumor-bearing C57BL/6 mice, i.p., NMDI14 20 mg/kg QDx3 weeks, antibodies 10 mg/kg (anti-CD8 200 ug/mouse) BIW x 3 weeks, n=8): 52.02 mm^3; Mean tumor volume ([2]; Day 12, same model and dosing (Table 2)): 72.22 mm^3; Percent inhibition of tumor volume ([2]; Day 12): 14.08%; Mean tumor volume ([2]; Day 15, same model and dosing (Table 2)): 135.90 mm^3; Percent inhibition of tumor volume ([2]; Day 15): −4.42%; Mean tumor volume ([2]; Day 18, same model and dosing (Table 2)): 270.73 mm^3; Percent inhibition of tumor volume ([2]; Day 18): 6.19%; Mean tumor volume ([2]; Day 22, same model and dosing (Table 2)): 405.71 mm^3; Percent inhibition of tumor volume ([2]; Day 22): 15.14%; Mean tumor volume ([2]; Day 25, same model and dosing (Table 2)): 644.91 mm^3; Percent inhibition of tumor volume ([2]; Day 25): 19.44%; Mean tumor volume ([2]; Day 29, same model and dosing (Table 2)): 999.58 mm^3; Percent inhibition of tumor volume ([2]; Day 29): 20.58%; Mean tumor volume ([2]; Day 32, same model and dosing (Table 2)): 1395.65 mm^3; Percent inhibition of tumor volume ([2]; Day 32): 21.74%; Tumor inhibition (in words) ([2]; MC38 tumor-bearing C57BL/6 mice, Table 6, FIG. 1-3): tumor inhibition-promoting properties
